From ChEMBL document CHEMBL5055644, “Cysteine derivatives as acetyl lysine mimics to inhibit zinc-dependent histone deacetylases for treating cancer” (Eur J Med Chem, 2021) come the findings set out here.

Data set [1] can be described thus: Half life in mouse liver microsomes. The format is ADME, Microsome. (Liver microsomes are vesicles of endoplasmic reticulum, rich in cytochrome P450 enzymes.)
For data set [2], the system named is MCF7. The experiment in a line: cells. The conditions noted are these: Homo sapiens, time 48 hrs. The format is functional.
Description: Antiproliferative activity against human MCF-7 cells assessed as inhibition of cell proliferation incubated for 48 hrs by CCK8 assay
The nature of data set [3]: Half life in human liver microsomes. The format is ADME, Microsome.
The target in data set [4] is T1, Protein deacetylase HDAC6 (Homo sapiens) (UniProt Q9UBN7).
T1 sequence (whole entry): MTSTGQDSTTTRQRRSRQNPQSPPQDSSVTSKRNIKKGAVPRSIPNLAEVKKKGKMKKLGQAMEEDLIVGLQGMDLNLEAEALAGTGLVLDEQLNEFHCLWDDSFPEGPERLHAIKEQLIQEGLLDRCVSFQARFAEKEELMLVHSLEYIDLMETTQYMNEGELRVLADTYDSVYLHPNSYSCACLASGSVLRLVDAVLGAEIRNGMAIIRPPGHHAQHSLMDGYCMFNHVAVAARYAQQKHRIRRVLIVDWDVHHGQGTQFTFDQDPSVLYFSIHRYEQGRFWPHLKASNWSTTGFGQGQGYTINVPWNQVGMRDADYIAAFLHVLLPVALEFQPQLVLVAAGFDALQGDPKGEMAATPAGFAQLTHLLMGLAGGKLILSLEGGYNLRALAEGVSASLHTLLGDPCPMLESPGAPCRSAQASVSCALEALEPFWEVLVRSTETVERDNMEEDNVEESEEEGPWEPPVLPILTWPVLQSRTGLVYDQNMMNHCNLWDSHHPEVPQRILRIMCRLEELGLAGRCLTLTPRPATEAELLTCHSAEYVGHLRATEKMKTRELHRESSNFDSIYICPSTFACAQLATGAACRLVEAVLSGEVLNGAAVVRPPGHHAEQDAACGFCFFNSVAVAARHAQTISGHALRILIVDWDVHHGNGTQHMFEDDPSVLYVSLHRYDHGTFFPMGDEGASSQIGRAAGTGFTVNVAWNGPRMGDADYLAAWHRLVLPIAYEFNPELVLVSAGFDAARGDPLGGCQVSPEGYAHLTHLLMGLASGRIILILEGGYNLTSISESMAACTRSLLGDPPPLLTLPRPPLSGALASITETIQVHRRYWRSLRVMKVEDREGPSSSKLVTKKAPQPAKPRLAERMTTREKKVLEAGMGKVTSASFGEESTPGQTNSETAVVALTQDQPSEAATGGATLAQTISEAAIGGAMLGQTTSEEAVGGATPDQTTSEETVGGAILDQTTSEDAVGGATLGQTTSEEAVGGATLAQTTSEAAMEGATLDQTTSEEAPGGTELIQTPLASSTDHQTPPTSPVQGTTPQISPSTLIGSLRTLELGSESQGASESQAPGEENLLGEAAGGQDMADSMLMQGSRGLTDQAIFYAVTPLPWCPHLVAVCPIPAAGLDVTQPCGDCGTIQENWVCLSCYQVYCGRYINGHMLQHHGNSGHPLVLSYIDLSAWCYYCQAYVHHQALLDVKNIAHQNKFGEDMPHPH
Kind of data set: Inhibition of HDAC6 in human MCF7 cells assessed as increase in alpha tubulin acetylation at 10 uM measured after 8 hrs by Western blot analysis. The format is cell-based.

The target in data set [5] is T2, Protein deacetylase HDAC6 (Homo sapiens, UniProt Q9UBN7).
T2 sequence (Q9UBN7 whole entry): T1 sequence (whole entry)
The experiment in a line: Inhibition of HDAC6 (unknown origin) using Boc-Lys(acetyl)-AMC as fluorogenic substrate measured after 1 hr by flourescence plate reader method.

Data set [6] can be described thus: Acute toxicity in po dosed BALB/c mouse assessed as lethal dose. The format is organism-based. As to conditions: in vivo.
The target of data set [7] is T3, Class 1 histone deacetylase (Homo sapiens) (UniProt Q13547+O15379+Q92769+Q9BY41). The experiment in a line: Inhibition of class 1 HDAC in human A549 cells assessed as increase in histone H3/H4 acetylation at 10 uM measured after 8 hrs by Western blot analysis. The format is cell-based. A general note: Immunoblotting shows a protein as a band on a membrane.
T3 sequence (O15379 whole entry, looked up): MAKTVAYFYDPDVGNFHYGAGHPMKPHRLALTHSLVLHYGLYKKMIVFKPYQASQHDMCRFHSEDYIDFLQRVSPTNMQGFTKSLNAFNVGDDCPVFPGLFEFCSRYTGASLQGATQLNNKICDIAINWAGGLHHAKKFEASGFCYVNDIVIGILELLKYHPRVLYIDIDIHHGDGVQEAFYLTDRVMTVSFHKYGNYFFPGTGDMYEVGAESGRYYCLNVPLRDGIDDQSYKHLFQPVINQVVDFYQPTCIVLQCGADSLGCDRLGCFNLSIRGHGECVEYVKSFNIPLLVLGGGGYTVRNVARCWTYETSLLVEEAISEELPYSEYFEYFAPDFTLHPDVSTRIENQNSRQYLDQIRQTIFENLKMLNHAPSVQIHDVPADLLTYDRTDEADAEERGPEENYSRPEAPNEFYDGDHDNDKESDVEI
T3 sequence (Q13547 whole entry, looked up): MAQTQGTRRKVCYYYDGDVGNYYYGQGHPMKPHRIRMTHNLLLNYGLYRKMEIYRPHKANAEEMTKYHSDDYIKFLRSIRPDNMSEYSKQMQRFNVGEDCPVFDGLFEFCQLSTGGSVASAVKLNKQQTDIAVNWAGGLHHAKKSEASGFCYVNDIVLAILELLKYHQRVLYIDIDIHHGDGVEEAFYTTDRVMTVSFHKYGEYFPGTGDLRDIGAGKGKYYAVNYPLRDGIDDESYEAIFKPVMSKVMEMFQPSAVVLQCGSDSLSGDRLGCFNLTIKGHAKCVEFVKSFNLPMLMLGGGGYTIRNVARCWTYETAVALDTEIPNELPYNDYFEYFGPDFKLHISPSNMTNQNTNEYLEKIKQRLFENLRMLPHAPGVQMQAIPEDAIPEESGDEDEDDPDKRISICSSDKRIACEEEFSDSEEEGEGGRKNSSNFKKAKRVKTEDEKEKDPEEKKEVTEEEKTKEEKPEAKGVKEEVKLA
T3 sequence (Q92769 whole entry, looked up): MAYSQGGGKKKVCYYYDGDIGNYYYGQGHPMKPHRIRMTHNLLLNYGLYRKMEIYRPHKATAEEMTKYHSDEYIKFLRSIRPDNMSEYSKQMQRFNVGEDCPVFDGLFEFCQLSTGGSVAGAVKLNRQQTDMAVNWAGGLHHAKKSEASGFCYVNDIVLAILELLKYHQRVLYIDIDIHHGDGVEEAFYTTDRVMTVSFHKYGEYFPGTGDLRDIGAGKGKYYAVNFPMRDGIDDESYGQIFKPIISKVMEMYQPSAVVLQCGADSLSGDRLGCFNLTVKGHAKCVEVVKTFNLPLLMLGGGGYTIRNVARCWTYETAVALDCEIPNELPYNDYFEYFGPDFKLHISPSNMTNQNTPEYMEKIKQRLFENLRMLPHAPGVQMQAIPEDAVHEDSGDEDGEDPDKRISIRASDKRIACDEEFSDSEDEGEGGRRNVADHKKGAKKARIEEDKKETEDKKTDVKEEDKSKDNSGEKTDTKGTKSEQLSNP
T3 sequence (Q9BY41 whole entry, looked up): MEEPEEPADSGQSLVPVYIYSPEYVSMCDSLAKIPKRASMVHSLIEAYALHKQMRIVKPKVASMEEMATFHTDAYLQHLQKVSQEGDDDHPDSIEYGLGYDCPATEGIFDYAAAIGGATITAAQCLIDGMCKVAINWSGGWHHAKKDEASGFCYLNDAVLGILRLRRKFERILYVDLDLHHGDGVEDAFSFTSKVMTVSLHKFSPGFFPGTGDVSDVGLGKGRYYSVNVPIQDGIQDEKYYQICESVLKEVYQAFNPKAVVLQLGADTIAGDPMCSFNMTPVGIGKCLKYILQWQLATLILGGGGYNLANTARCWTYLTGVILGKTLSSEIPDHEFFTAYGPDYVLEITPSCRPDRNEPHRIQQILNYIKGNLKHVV
For data set [8], the system named is Mus musculus. Kind of data set: Toxicity in BALB/c mouse xenografted with human A549 cells assessed as effect on body weight at 0.75 to 1.5 mg, IT(Intratumoral) measured after 21 days. The format is organism-based. As to conditions: in vivo, other, 504 h, dose 0.75-1.5 mg, time 21 day. On the technique in general: Xenograft models place foreign cells or tissue in a host animal.

A short description of data set [9]: Acute toxicity in BALB/c mouse assessed as maximum tolerated dose. As to conditions: in vivo.
The subject of data set [10] is Mus musculus. Kind of data set: Toxicity in BALB/c mouse xenografted with human A549 cells assessed as effect on body weight at 25 to 50 mg/kg, iv measured after 21 days. The format is organism-based. The conditions noted are these: in vivo, 504 h, dose 25-50 mg/kg, time 21 day.
For data set [11], the system named is A549. Kind of data set: Induction of cell cycle arrest in human A549 cells assessed as increase in accumulation at G1/G0 phase measured after 48 hrs by flow cytometry analysis. The format is functional, cell-based. As to conditions: dose 1-10 µM.
For data set [12], the target named is T3, Class 1 histone deacetylase (Homo sapiens). Kind of data set: Inhibition of class 1 HDAC in human A549 cells assessed as increase in histone H3/H4 acetylation measured after 24 hrs by Immunofluorescent assay. The format is cell-based.
Data set [13] concerns the target T1, Protein deacetylase HDAC6 (Homo sapiens). Kind of data set: Inhibition of HDAC6 in human A549 cells assessed as increase in alpha tubulin acetylation at 10 uM measured after 8 hrs by Western blot analysis. The format is cell-based.
Data set [14] can be described thus: Acute toxicity in BALB/c mouse assessed as effect on body weight at up to 2000 mg/kg, po. The format is organism-based. As to conditions: in vivo.
Data set [15] has as its system K562. Kind of data set: Induction of apoptosis in human K562 cells assessed as upregulation of BaX protein expression at 10 uM measured after 8 hrs by Western blot analysis. The format is functional, cell-based.
Data set [16] relates to Mus musculus. Kind of data set: In vivo inhibition of HDAC in BALB/c mouse xenografted with human A549 cells assessed as increase in H3 histone at 25 to 50 mg/kg, iv administered for 3 weeks by immunohistochemical analysis. The format is functional, organism-based. The conditions noted are these: dose 25-50 mg/kg.
Data set [17] has as its system A549. The experiment in a line: Antitumor activity against human A549 cells xenografted in BALB/c mouse assessed as reduction in tumor volume when administered intratumorally for 21 days. As to conditions: dose 0.75-1.5 mg, route it(Intratumoral), time 21.0 day. The format is functional.
The subject of data set [18] is A549. The experiment in a line: Antitumour activity against human A549 cells xenografted in BALB/c mouse assessed as tumor growth inhibition at 25 mg/kg,iv administered for 3 weeks relative to control. The format is functional. As to conditions: A549, 504 h, read-out: TGI.
Data set [19] deals with A549. The experiment in a line: Upregulation of p21 in human A549 cells up to 10 uM measured after 8 hrs by Western blot analysis. The format is functional, cell-based.
Data set [20] deals with A549. The experiment in a line: Induction of apoptosis in human A549 cells at 1 to 10 uM after 48 hrs by Annexin-V/propidium iodide staining based flow cytometric analysis. The format is functional, cell-based. As to conditions: dose 1-10 µM.
The subject of data set [21] is A549. Kind of data set: Antitumour activity against human A549 cells xenografted in BALB/c mouse assessed as tumor growth inhibition at 50 mg/kg,iv administered for 3 weeks relative to control. As to conditions: A549, 504 h, read-out: TGI. The format is functional.
In data set [22] the test system is K562. Kind of data set: Induction of apoptosis in human K562 cells assessed as increased cleaved caspase 9 at 10 uM measured after 8 hrs by Western blot analysis. The format is functional, cell-based.
The target in data set [23] is Protein deacetylase HDAC6 (Mus musculus) (UniProt Q9Z2V5). The experiment in a line: In vivo inhibition of HDAC6 in BALB/c mouse xenografted with human A549 cells assessed as increase in alpha tubulin acetylation at 25 to 50 mg/kg, iv administered for 3 weeks by immunohistochemical analysis. The format is functional, organism-based. As to conditions: dose 25-50 mg/kg.
Chain of Protein deacetylase HDAC6 (Mus musculus) (Q9Z2V5 whole entry): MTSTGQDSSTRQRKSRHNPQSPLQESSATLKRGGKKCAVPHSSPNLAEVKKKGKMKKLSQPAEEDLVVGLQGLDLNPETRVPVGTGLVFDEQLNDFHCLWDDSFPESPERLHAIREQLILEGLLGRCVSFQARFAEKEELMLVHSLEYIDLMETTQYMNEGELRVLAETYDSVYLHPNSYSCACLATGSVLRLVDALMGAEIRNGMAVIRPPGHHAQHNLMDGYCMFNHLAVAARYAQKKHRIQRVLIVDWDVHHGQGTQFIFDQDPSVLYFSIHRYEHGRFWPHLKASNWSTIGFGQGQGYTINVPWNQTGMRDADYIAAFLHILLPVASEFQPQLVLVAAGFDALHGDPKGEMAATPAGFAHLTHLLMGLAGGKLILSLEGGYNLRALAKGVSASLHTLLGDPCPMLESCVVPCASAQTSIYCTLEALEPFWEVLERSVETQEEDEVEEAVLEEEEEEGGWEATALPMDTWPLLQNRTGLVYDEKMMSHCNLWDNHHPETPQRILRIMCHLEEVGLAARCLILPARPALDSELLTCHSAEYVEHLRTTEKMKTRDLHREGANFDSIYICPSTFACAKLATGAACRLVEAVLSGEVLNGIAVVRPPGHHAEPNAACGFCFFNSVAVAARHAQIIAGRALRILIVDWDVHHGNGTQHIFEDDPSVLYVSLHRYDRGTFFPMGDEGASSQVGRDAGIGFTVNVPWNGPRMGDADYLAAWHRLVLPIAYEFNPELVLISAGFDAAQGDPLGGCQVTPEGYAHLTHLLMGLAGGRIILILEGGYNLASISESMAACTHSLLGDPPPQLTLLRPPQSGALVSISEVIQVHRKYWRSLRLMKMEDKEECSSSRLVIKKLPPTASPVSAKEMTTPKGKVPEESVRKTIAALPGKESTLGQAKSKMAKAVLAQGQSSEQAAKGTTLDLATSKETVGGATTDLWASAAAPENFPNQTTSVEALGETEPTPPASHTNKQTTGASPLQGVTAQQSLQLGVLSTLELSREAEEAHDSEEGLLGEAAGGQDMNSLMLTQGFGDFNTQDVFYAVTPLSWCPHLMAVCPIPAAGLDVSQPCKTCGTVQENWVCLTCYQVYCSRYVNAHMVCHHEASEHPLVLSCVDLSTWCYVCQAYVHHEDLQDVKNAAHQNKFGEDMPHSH

Data set [24] concerns K562. Kind of data set: Induction of apoptosis in human K562 cells assessed as downregulation of Bcl-2 protein at 10 uM measured after 8 hrs by Western blot analysis. The format is functional, cell-based.

Activity calls are given as the source filed them. Bounds are passed on as bounds.

Turning to `O=C(CCCSC[C@H](NC(=O)OCc1ccccc1)C(=O)Nc1cccc2ccccc12)NO`, the half-life (in general, the time needed for the level to fall by half in the phase considered) in data set [1] is under 1 min; in data set [3], 3.96 min. The GI50 (as a rule, the concentration that inhibits growth by half) in data set [2] amounted to 4.9 µM. Also, in [4], the inhibition result is “Active”. In addition, in [5], it took 0.0196 µM to reach half-maximal inhibition (IC50).

The compound `O=C(CCCSC[C@H](NC(=O)OCc1ccccc1)C(=O)Nc1ccccc1)NO` displayed a concentration for 50% growth inhibition (GI50) in data set [2] of 4.7 µM. In addition, the inhibition entry in data set [4] was “Active”. Also, the IC50 (usually the concentration that inhibits the measured activity by half) in data set [5] came out at 0.0206 µM.

On to `O=C(CCCSC[C@H](NC(=O)c1ccccc1)C(=O)Nc1ccccc1)NO`, for which, in data set [6], the LD50 (as a rule, the dose at which mortality reaches 50%) is over 2000 mg/kg. Besides, the inhibition result in data set [7], in [13], in data set [16], in [23] and in [4] was “Active” each time. The Activity entry in data set [8] was “Non-Toxic”; in data set [10], “Non-Toxic”; in data set [11], “Dose-dependent effect”; in [14], “Non-Toxic”; in data set [17], “Dose-dependent effect”. In addition, in data set [9], the MTD (as a rule, the highest dose tested that stayed within the study's limit of toxicity) was determined as 100 mg/kg. For the same compound, the half-life in data set [1] stood at 22.6 min; in [3], 34.8 min. The GI50 in data set [2] was 3.7 µM. The inhibition result in data set [12] is “Dose-dependent effect”. Moreover, the outcome in data set [15], in [19], in data set [20], in [22] and in [24] was Active. Besides, in [18], the inhibition in vivo at 25 mg/kg stood at 62%. For the same compound, the inhibition in vivo at 50 mg/kg in [21] was 75%. Moreover, it took 0.0137 µM to reach half-maximal inhibition in [5] (IC50).
